Columns and labels:
[1] = test system: Bacillus subtilis ATCC 6633; experiment: Antimicrobial activity, MIC determination; type: cell-based; details: B. subtilis; 24-h incubation, 37°C
Experimental: (§1) The in vitro antimicrobial activity of the compounds was evaluated by determining the minimum inhibitory concentration (MIC) against the Gram-positive microorganisms Staphylococcus aureus ATCC 6538 (S. aureus) and Bacillus subtilis ATCC 6633 (B. subtilis) and the Gram-negative microorganism Xanthomonas campestris ATCC 1395 (X. campestris). The affinity of the compounds for bovine serum albumin (BSA) and human serum albumin (HSA) was studied by fluorescence emission spectroscopy, and the corresponding binding constants were determined. Furthermore, the interaction of the compounds with calf-thymus DNA (CT DNA) was investigated to determine the possible mode of interaction by the following methods: (i) UV–vis spectroscopy (where the DNA-binding constants of the complexes (Kb) were also determined), (ii) DNA-viscosity measurements, (iii) cyclic voltammetry and (iv) competitive DNA-binding studies with the classic intercalator ethidium bromide (EB) performed by fluorescence emission spectroscopy.
(§2) Three bacterial strains, one Gram(−) (X. campestris) and two Gram(+) (S. aureus and B. subtilis), were used in order to test the antimicrobial activity of the compounds.
(§3) The antimicrobial activity of the compounds was evaluated b y determining their respective MIC values towards one Gram–( –) (Xanthomonas campestris ATCC 1395 (X. campestris)) and two Gram–(+) (Staphylococcus aureus ATCC 6538 (S. aureus) and Bacillus subtilis ATCC 6633 (B. subtilis)) bacterial species. Cultures of these microbial strains were grown on a rich selective agar medium and stored at 4°C. The selective media used were Nutrient Agar or Broth for B. subtilis and S. aureus, and Yeast Mold Agar or Broth for X. campestris . Cells picked from the surface of the stored cultures were used to initiate liquid pre–cultures of the same selective medium at an initial turbidity of roughl y 1 McFarland unit. Pre–cultures were incubated for 24 h in a rotar y sh aking incubator and subsequently the y were used to inoculate the test cultures used for the determination of MIC at an initial turbidity of 0.5 McFarland units. The test cultures consisted of Mueller–Hinton broth (Deben Diagnostics Ltd) containing different concentrations of the compounds. Different concentrations were achieved as follows: the compounds were freshly dissolved in DMSO to a concentration of 1 mg/mL and they were diluted with DMSO, using the method of progressive double dilution. Therefore, working solutions with decreasing concentrations of the compounds under investigation were achieved. The working solutions were subsequently diluted to the final desired concentration b y addition to the growth medium at a proportion of 2:98. MIC values were determined as the lowest concentrations of the tested compounds that inhibited visible growth of each respective organism after a 24–h incubation [ S1]. Bacterial growth was determined b y measuring the turbidit y of appropriatel y diluted cultures at 600 nm with reference to equall y diluted sterile growth medium and the inhibition achieved was calculated b y comparing the turbidit y of each culture to the average of the turbidit y of three non–inhibited cultures. All test cultures were grown in triplicates and for the determination of MIC, growth had to be inhibited in at least two cultures of the triplicate. In cubation temperatur e at all stages was 37°C ex cept for X. campestris t h at was cultivated at 28°C [S2]. […]
(§4) The fluorescence spectra of the compounds were recorded under the same experimental conditions and presented a low–intensity emission band in the region 405–410 nm .

[2] = test system: Staphylococcus aureus ATCC 6538; experiment: Antimicrobial activity, MIC determination; type: cell-based; details: S. aureus; 24-h incubation, 37°C
Experimental: as §1, §2, §3, §4

[3] = test system: Xanthomonas campestris ATCC 1395; experiment: Antimicrobial activity, MIC determination; type: cell-based; details: X. campestris; 24-h incubation, 28°C
Experimental: as §1, §2, §3, §4

[4] = biological target: T1, human serum albumin (HSA) (Homo sapiens, UniProt P02768); experiment: Albumin binding by tryptophan fluorescence emission quenching; details: for K(HSA), HSA-binding constant / kq(HSA), HSA-quenching constant: HSA 3 μM; for K(HSA), HSA-binding constant: buffer pH 7.0, Scatchard equation; for kq(HSA), HSA-quenching constant: buffer pH 7.0, λexc 295 nm, Stern–Volmer, τ0 = 10^–8 s; for HSA fluorescence, % of the initial fluorescence intensity (I/Io): λem,max = 351 nm, final value of titration (Figure S10)
T1 construct: purchased
T1 sequence (P02768 25-609): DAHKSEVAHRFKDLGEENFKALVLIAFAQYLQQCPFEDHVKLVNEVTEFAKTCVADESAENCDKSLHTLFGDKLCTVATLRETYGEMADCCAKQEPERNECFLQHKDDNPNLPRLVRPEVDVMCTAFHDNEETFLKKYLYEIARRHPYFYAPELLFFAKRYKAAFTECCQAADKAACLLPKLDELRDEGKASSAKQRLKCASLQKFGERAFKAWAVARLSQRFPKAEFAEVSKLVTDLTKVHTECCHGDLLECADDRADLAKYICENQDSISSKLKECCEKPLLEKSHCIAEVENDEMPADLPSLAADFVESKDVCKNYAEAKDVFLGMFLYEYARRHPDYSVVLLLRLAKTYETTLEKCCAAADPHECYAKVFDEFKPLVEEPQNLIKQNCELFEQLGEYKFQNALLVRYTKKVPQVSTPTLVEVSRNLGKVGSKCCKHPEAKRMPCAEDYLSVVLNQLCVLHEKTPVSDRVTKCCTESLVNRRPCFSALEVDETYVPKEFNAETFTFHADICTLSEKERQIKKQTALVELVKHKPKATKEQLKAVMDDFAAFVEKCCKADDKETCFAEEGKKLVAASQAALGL
Experimental: (§5) Serum albumins (Sas) are the most abundant serum proteins and play a role in the circulatory system, primarily in the transport of drugs and other bioactive small molecules through the bloodstream.
(§6) The SA-quenching constants (kq) for the compounds (Table 5) were calculated with the Stern–Volmer quenching equation (Equations (S2) and (S3)).
(§7) Albumin-binding constants (K) were calculated using the Scatchard equation (Equation (S4)). […]
(§8) S2. Interaction with serum albumins
(§9) The albumin–binding study for the compounds was carried out b y fluorescence emission

[5] = biological target: T2, bovine serum albumin (BSA) (Bos taurus, UniProt P02769); experiment: as above; details: for K(BSA), BSA-binding constant / kq(BSA), BSA-quenching constant: BSA 3 μM; for K(BSA), BSA-binding constant: buffer pH 7.0, Scatchard equation; for kq(BSA), BSA-quenching constant: buffer pH 7.0, λexc 295 nm, Stern–Volmer, τ0 = 10^–8 s; for BSA fluorescence, % of the initial fluorescence intensity (I/Io): λem,max = 342 nm, final value of titration (Figure S11)
T2 construct: purchased
T2 sequence (P02769 25-607): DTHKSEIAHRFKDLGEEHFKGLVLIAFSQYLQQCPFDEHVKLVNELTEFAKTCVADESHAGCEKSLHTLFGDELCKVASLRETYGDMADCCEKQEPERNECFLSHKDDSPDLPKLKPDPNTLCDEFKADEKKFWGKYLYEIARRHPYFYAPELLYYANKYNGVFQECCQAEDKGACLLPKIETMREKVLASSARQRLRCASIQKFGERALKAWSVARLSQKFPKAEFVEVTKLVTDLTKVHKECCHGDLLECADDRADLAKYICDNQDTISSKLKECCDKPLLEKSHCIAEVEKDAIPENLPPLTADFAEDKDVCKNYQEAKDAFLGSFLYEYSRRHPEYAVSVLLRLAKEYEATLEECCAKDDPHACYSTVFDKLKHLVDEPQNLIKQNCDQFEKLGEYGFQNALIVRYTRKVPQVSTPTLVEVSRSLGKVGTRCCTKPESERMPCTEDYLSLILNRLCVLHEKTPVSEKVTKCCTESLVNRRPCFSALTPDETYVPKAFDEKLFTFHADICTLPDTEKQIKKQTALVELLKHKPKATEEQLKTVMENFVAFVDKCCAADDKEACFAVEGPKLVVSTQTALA
Experimental: as §5, §6, §7, §8, §9

SMILES	MIC [1] [µg/mL]	MIC (values in parentheses) [1] [µM]	MIC [2] [µg/mL]	MIC (values in parentheses) [2] [µM]	MIC [3] [µg/mL]	MIC (values in parentheses) [3] [µM]	K(HSA), HSA-binding constant [4]	kq(HSA), HSA-quenching constant [4]	HSA fluorescence, % of the initial fluorescence intensity (I/Io) [4] [%]	K(BSA), BSA-binding constant [5]	kq(BSA), BSA-quenching constant [5]	BSA fluorescence, % of the initial fluorescence intensity (I/Io) [5] [%]
CN1CCN(c2c(F)cc3c(=O)c(C(=O)[O-])cn(CCF)c3c2F)CC1.CN1CCN(c2c(F)cc3c(=O)c(C(=O)[O-])cn(CCF)c3c2F)CC1.O.O.[Mn+2] [complex 2, [Mn(flrx)2(H2O)2]]	4	4.7	4	4.7	16	18.7	9.58(±0.39) × 10^4 M^−1	1.42(±0.04) × 10^13 M^−1s^−1	28.5	1.45(±0.04) × 10^5 M^−1	3.45(±0.16) × 10^13 M^−1s^−1	11.1
CN1CCN(c2c(F)cc3c(=O)c(C(=O)[O-])cn(CCF)c3c2F)CC1.CN1CCN(c2c(F)cc3c(=O)c(C(=O)[O-])cn(CCF)c3c2F)CC1.[Ni+2].c1cnc2c(c1)ccc1cccnc12 [complex 19, [Ni(flrx)2(phen)]]	8	8.2	8	8.2	16	16.4	6.65(±0.15) × 10^4 M^−1	6.67(±0.18) × 10^12 M^−1s^−1	43.9	8.01(±0.28) × 10^4 M^−1	1.39(±0.04) × 10^13 M^−1s^−1	25.6
CN1CCN(c2c(F)cc3c(=O)c(C(=O)[O-])cn(CCF)c3c2F)CC1.CN1CCN(c2c(F)cc3c(=O)c(C(=O)[O-])cn(CCF)c3c2F)CC1.[Ni+2].c1ccc(Nc2ccccn2)nc1 [complex 18, [Ni(flrx)2(bipyam)]]	8	8.3	8	8.3	32	33.0	7.13(±0.17) × 10^4 M^−1	6.94(±0.10) × 10^12 M^−1s^−1	44.5	4.77(±0.15) × 10^4 M^−1	1.56(±0.07) × 10^13 M^−1s^−1	25.2
CN1CCN(c2c(F)cc3c(=O)c(C(=O)[O-])cn(CCF)c3c2F)CC1.CN1CCN(c2c(F)cc3c(=O)c(C(=O)[O-])cn(CCF)c3c2F)CC1.[Co+2].c1ccc(Nc2ccccn2)nc1 [complex 16, [Co(flrx)2(bipyam)]]	8	8.3	8	8.3	16	16.5	9.61(±0.36) × 10^4 M^−1	9.35(±0.22) × 10^12 M^−1s^−1	36.1	1.44(±0.04) × 10^5 M^−1	1.98(±0.05) × 10^13 M^−1s^−1	22.2
CN1CCN(c2c(F)cc3c(=O)c(C(=O)[O-])cn(CCF)c3c2F)CC1.CN1CCN(c2c(F)cc3c(=O)c(C(=O)[O-])cn(CCF)c3c2F)CC1.[Cu+2] [complex 1, [Cu(flrx)2]]	8	10.0	8	10.0	8	10.0	8.39(±0.27) × 10^4 M^−1	1.09(±0.08) × 10^13 M^−1s^−1	33.3	7.19(±0.21) × 10^4 M^−1	1.87(±0.09) × 10^13 M^−1s^−1	17.3
CN1CCN(c2c(F)cc3c(=O)c(C(=O)[O-])cn(CCF)c3c2F)CC1.CN1CCN(c2c(F)cc3c(=O)c(C(=O)[O-])cn(CCF)c3c2F)CC1.[Mn+2].c1ccc(-c2ccccn2)nc1 [complex 9, [Mn(flrx)2(bipy)]]	8	8.4	8	8.4	16	16.9	6.36(±0.31) × 10^4 M^−1	8.09(±0.17) × 10^12 M^−1s^−1	39.8	1.39(±0.05) × 10^5 M^−1	2.45(±0.09) × 10^13 M^−1s^−1	18.0
CN1CCN(c2c(F)cc3c(=O)c(C(=O)[O-])cn(CCF)c3c2F)CC1.CN1CCN(c2c(F)cc3c(=O)c(C(=O)[O-])cn(CCF)c3c2F)CC1.[Co+2].c1ccc(-c2ccccn2)nc1 [complex 15, [Co(flrx)2(bipy)]]	8	8.4	4	4.2	16	16.8	8.13(±0.25)×10^4 M^−1	1.56(±0.05) × 10^13 M^−1s^−1	26.1	2.84(±0.11) × 10^5 M^−1	5.12(±0.17) × 10^13 M^−1s^−1	9.2

Reference: article PMC9144902, “Metal(II) Complexes of the Fluoroquinolone Fleroxacin: Synthesis, Characterization and Biological Profile” (Pharmaceutics, 2022)
